Results: patent US6696533B1, “Stable N-oxly radical assisted emulsion polymerization under pressure” (BASF Aktiengesellschaft, priority 1997, dated 2004)

Excerpt: The monomers and polymerization auxiliaries used in the examples below were used without further purification, in other words as acquired.

CC1(C)CCCC(C)(C)N1O [TEMPO, 2,2,6,6-tetramethyl-1-oxyl-piperidine]
molal solubility in water: 6.4e-05 mol/kg
